molecular target: T1, BA/F3-FLT3-ITD + D835Y cells (Homo sapiens, UniProt P36888, D835Y, cells depend on it, form not given); assay: Cell proliferation assay (CellTiter-Glo), engineered BA/F3 cells; format: cell-based, murine; settings: BaF3 FLT3 ITD/D835Y cells, 3d-Growth; read-out: BaF3_FLT3 ITD/D835Y 3d-Growth: IC50
T1 sequence (P36888 1-993 D835Y): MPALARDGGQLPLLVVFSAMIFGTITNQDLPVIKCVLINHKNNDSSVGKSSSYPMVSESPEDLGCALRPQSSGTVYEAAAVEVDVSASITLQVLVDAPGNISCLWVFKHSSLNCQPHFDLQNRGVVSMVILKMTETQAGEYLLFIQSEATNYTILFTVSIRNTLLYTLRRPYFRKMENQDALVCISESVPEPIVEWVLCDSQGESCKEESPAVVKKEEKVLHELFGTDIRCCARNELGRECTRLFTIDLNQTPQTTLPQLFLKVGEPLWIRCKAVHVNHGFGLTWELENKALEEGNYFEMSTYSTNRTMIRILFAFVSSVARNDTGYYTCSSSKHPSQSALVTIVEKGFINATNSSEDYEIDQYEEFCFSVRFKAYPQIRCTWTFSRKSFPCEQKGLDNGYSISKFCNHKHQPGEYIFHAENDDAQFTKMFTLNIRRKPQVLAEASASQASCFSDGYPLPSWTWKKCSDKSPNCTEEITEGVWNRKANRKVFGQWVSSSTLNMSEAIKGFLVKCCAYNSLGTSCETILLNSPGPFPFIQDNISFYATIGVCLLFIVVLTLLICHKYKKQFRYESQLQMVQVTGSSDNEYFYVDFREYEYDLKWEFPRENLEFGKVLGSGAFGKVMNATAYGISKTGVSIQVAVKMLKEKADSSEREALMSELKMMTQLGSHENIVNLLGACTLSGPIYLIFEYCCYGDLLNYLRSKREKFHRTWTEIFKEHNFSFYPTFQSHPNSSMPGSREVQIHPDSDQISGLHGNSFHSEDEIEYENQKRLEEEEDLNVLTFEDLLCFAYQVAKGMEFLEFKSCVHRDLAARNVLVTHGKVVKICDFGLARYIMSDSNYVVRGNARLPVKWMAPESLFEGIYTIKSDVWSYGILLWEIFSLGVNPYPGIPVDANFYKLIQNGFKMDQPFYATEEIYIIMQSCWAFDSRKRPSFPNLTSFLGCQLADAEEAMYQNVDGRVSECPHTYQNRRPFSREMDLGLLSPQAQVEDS
Method in brief: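 MOLM-14 AML cells (endogenous FLT3 ITD, AC220-selected D835Y or F691L variants) or murine Ba/F3 expressing full-length FLT3 ITD/D835Y, without IL-3 for FLT3 dependence, 1×10^4 cells/well. Eight-point 1:3 series from 1 μM final, 0.2% DMSO, 3 days at 37 °C. CellTiter-Glo luminescence (ATP) gave IC50.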

Row | SMILES | GI50
1 | NC1(C(F)(F)F)CCN(C(=O)c2cccc(-c3cnc4[nH]c(-c5ccccc5)cc4c3)n2)C1 (stereo not drawn) [Compound P-0077, [3-amino-3-(trifluoromethyl)pyrrolidin-1-yl]-[6-(2-phenyl-1H-pyrrolo[2,3-b]pyridin-5-yl)-2-pyridyl]methanone] | 0.0001 to 10 µM
2 | CC1(N)CCN(C(=O)c2cccc(-c3cnc4[nH]c(-c5ccccc5)cc4c3)n2)C1 (stereo not drawn) [Compound P-0078, (3-amino-3-methyl-pyrrolidin-1-yl)-[6-(2-phenyl-1H-pyrrolo[2,3-b]pyridin-5-yl)-2-pyridyl]methanone] | 0.0001 to 10 µM
3 | CNCC1CCN(C(=O)c2cccc(-c3cnc4[nH]c(-c5ccccc5)cc4c3)n2)C1 (stereo not drawn) [Compound P-0079, [3-(methylaminomethyl)pyrrolidin-1-yl]-[6-(2-phenyl-1H-pyrrolo[2,3-b]pyridin-5-yl)-2-pyridyl]methanone] | 0.0001 to 10 µM
4 | O=C(Nc1cccc(-c2cnc3[nH]c(-c4ccccc4)cc3c2)n1)C1CNC1 [Compound P-0084, N-[6-(2-phenyl-1H-pyrrolo[2,3-b]pyridin-5-yl)-2-pyridyl]azetidine-3-carboxamide] | 0.0001 to 10 µM
5 | O=C(c1cccc(-c2cnc3[nH]c(-c4ccccc4)cc3c2)n1)N1CCC(NC2CC2)C1 (stereo not drawn) [Compound P-0085, [3-(cyclopropylamino)pyrrolidin-1-yl]-[6-(2-phenyl-1H-pyrrolo[2,3-b]pyridin-5-yl)-2-pyridyl]methanone] | 0.0001 to 10 µM
6 | O=S(=O)(NC1CCNCC1)c1cccc(-c2cnc3[nH]c(-c4ccccc4)cc3c2)n1 [Compound P-0086, 6-(2-phenyl-1H-pyrrolo[2,3-b]pyridin-5-yl)-N-(4-piperidyl)pyridine-2-sulfonamide] | 0.0001 to 10 µM
7 | NC1CCC(NS(=O)(=O)c2cccc(-c3cnc4[nH]c(-c5ccccc5)cc4c3)n2)CC1 (stereo not drawn) [Compound P-0088, N-(4-aminocyclohexyl)-6-(2-phenyl-1H-pyrrolo[2,3-b]pyridin-5-yl)pyridine-2-sulfonamide] | 0.0001 to 10 µM
8 | O=C(c1cccc(-c2cnc3[nH]c(-c4ccccc4)cc3c2)n1)N1CC(F)(F)C1 [Compound P-0090, (3,3-difluoroazetidin-1-yl)-[6-(2-phenyl-1H-pyrrolo[2,3-b]pyridin-5-yl)-2-pyridyl]methanone] | 0.0001 to 10 µM
9 | COC1CN(C(=O)c2cccc(-c3cnc4[nH]c(-c5ccccc5)cc4c3)n2)C1 [Compound P-0091, (3-methoxyazetidin-1-yl)-[6-(2-phenyl-1H-pyrrolo[2,3-b]pyridin-5-yl)-2-pyridyl]methanone] | 0.0001 to 10 µM
10 | CC1(C#N)CCN(C(=O)c2cccc(-c3cnc4[nH]c(-c5ccccc5)cc4c3)n2)CC1 [Compound P-0094, 4-methyl-1-[6-(2-phenyl-1H-pyrrolo[2,3-b]pyridin-5-yl)pyridine-2-carbonyl]piperidine-4-carbonitrile] | 0.0001 to 10 µM
11 | COC1CCN(C(=O)c2cccc(-c3cnc4[nH]c(-c5ccccc5)cc4c3)n2)CC1 [Compound P-0098, (4-methoxy-1-piperidyl)-[6-(2-phenyl-1H-pyrrolo[2,3-b]pyridin-5-yl)-2-pyridyl]methanone] | 0.0001 to 10 µM
12 | CS(=O)(=O)NC1CCN(C(=O)c2cccc(-c3cnc4[nH]c(-c5ccccc5)cc4c3)n2)C1 (stereo not drawn) [Compound P-0101, N-[1-[6-(2-phenyl-1H-pyrrolo[2,3-b]pyridin-5-yl)pyridine-2-carbonyl]pyrrolidin-3-yl]methanesulfonamide] | 0.0001 to 10 µM
13 | O=C(c1cccc(-c2cnc3[nH]c(-c4ccccc4)cc3c2)n1)N1CCC(N2CCOCC2)C1 (stereo not drawn) [Compound P-0102, (3-morpholinopyrrolidin-1-yl)-[6-(2-phenyl-1H-pyrrolo[2,3-b]pyridin-5-yl)-2-pyridyl]methanone] | 0.0001 to 10 µM
14 | O=C(c1cccc(-c2cnc3[nH]c(-c4ccccc4)cc3c2)n1)N1CCC(C(F)(F)F)C1 (stereo not drawn) [Compound P-0103, [6-(2-phenyl-1H-pyrrolo[2,3-b]pyridin-5-yl)-2-pyridyl]-[3-(trifluoromethyl)pyrrolidin-1-yl]methanone] | 0.0001 to 10 µM
15 | CN(C)C1CCN(C(=O)c2cccc(-c3cnc4[nH]c(-c5ccccc5)cc4c3)n2)C1 (stereo not drawn) [Compound P-0104, [3-(dimethylamino)pyrrolidin-1-yl]-[6-(2-phenyl-1H-pyrrolo[2,3-b]pyridin-5-yl)-2-pyridyl]methanone] | 0.0001 to 10 µM
16 | N#CC1CCN(C(=O)c2cccc(-c3cnc4[nH]c(-c5ccc(F)cc5)cc4c3)n2)C1 (stereo not drawn) [Compound P-0116, 1-[6-[2-(4-fluorophenyl)-1H-pyrrolo[2,3-b]pyridin-5-yl]pyridine-2-carbonyl]pyrrolidine-3-carbonitrile] | 0.0001 to 10 µM

More lines, now with the values ahead:

Row | GI50 | SMILES
17 | 0.0001 to 10 µM | CN[C@@H]1CCN(C(=O)c2cccc(-c3cnc4[nH]c(-c5ccccc5)cc4c3)n2)C1 [Compound P-0058, [(3R)-3-(methylamino)pyrrolidin-1-yl]-[6-(2-phenyl-1H-pyrrolo[2,3-b]pyridin-5-yl)-2-pyridyl]methanone]
18 | 0.0001 to 10 µM | CNC1CCN(C(=O)c2cccc(-c3cnc4[nH]c(-c5ccnc(OC)c5)cc4c3)n2)C1 (stereo not drawn) [Compound P-0060, [6-[2-(2-methoxy-4-pyridyl)-1H-pyrrolo[2,3-b]pyridin-5-yl]-2-pyridyl]-[3-(methylamino)pyrrolidin-1-yl]methanone]
19 | 0.0001 to 10 µM | CNC1CCN(C(=O)c2cccc(-c3cnc4[nH]c(-c5cnn(CC(F)(F)F)c5)cc4c3)n2)C1 (stereo not drawn) [Compound P-0061, [3-(methylamino)pyrrolidin-1-yl]-[6-[2-[1-(2,2,2-trifluoroethyl)pyrazol-4-yl]-1H-pyrrolo[2,3-b]pyridin-5-yl]-2-pyridyl]methanone]
20 | 0.0001 to 10 µM | CNC1CCN(C(=O)c2cccc(-c3cnc4[nH]c(-c5cccc(C#N)c5)cc4c3)n2)C1 (stereo not drawn) [Compound P-0062, 3-[5-[6-[3-(methylamino)pyrrolidine-1-carbonyl]-2-pyridyl]-1H-pyrrolo[2,3-b]pyridin-2-yl]benzonitrile]
21 | 0.0001 to 10 µM | CNC1CCN(S(=O)(=O)c2cccc(-c3cnc4[nH]c(-c5ccccc5)cc4c3)n2)C1 (stereo not drawn) [Compound P-0063, N-methyl-1-[[6-(2-phenyl-1H-pyrrolo[2,3-b]pyridin-5-yl)-2-pyridyl]sulfonyl]pyrrolidin-3-amine]
22 | 0.0001 to 10 µM | CN1CCC(NC(=O)c2cccc(-c3cnc4[nH]c(-c5ccccc5)cc4c3)n2)C1 (stereo not drawn) [Compound P-0064, N-(1-methylpyrrolidin-3-yl)-6-(2-phenyl-1H-pyrrolo[2,3-b]pyridin-5-yl)pyridine-2-carboxamide]
23 | 0.0001 to 10 µM | CNC1CCN(C(=O)c2cccc(-c3cnc4[nH]c(C5=CCC(C)(C)CC5)cc4c3)n2)C1 (stereo not drawn) [Compound P-0070, [6-[2-(4,4-dimethylcyclohexen-1-yl)-1H-pyrrolo[2,3-b]pyridin-5-yl]-2-pyridyl]-[3-(methylamino)pyrrolidin-1-yl]methanone]
24 | 0.0001 to 10 µM | O=S(=O)(NC1CNC1)c1cccc(-c2cnc3[nH]c(-c4ccccc4)cc3c2)n1 [Compound P-0071, N-(azetidin-3-yl)-6-(2-phenyl-1H-pyrrolo[2,3-b]pyridin-5-yl)pyridine-2-sulfonamide]
25 | 0.0001 to 10 µM | O=S(=O)(NC1CCNC1)c1cccc(-c2cnc3[nH]c(-c4ccccc4)cc3c2)n1 (stereo not drawn) [Compound P-0072, 6-(2-phenyl-1H-pyrrolo[2,3-b]pyridin-5-yl)-N-pyrrolidin-3-yl-pyridine-2-sulfonamide]
26 | 0.0001 to 10 µM | NC1CCN(S(=O)(=O)c2cccc(-c3cnc4[nH]c(-c5ccccc5)cc4c3)n2)CC1 [Compound P-0073, 1-[[6-(2-phenyl-1H-pyrrolo[2,3-b]pyridin-5-yl)-2-pyridyl]sulfonyl]piperidin-4-amine]
27 | 0.0001 to 10 µM | CN1CC(NC(=O)c2cccc(-c3cnc4[nH]c(-c5ccccc5)cc4c3)n2)C1 [Compound P-0075, N-(1-methylazetidin-3-yl)-6-(2-phenyl-1H-pyrrolo[2,3-b]pyridin-5-yl)pyridine-2-carboxamide]
